Assay results as given in US10005769B2, “2,3-dihydrobenzofuran-5YL compounds as DYRK kinase inhibitors” (4SC DISCOVERY GMBH, priority 2013, dated 2018).

Legend:
[1] = system: Hedgehog signaling pathway (Gli Reporter - NIH3T3 cell line); test: Hedgehog Reporter Assay (Gli-Reporter, luciferase, mSHH stimulated); assay type: cell-based, murine; conditions: Mus musculus; Gli Reporter NIH3T3 cells, 1 μg/ml mSHH, 24 h
Method: In order to investigate the potency of test compounds to inhibit the Hedgehog signaling pathway, a Gli-Reporter assay was performed. The “Gli Reporter-NIH3T3” cell line contains the firefly luciferase gene under the control of Gli responsive elements stably integrated into murine NIH3T3 cells (cells purchased from AMS Biotechnology ltd., 184 Milton Park, Abingdon OX14 4SE, U.K.). The luciferase expression correlates with activation of the hedgehog signaling pathway. This cell line is validated for its response to stimulation with murine Sonic Hedgehog and to treatment with inhibitors of the hedgehog signaling pathway. A multiplexed viability assay was used to discriminate inhibition on the pathway activity from cell toxicity. Growth Medium: DMEM (Dulbecco's Modified Eagle Medium); 10% Fetal Calf Serum; 1% Penicillin/Streptomycin; 500 μg/ml Geneticin (G418 Stock 50 mg/ml). Assay Medium: Opti-MEM® Reduced Serum Medium; 0.5% Calf Serum; 1% non-essential amino acids; 1 mM Na-pyruvate; 10 mM HEPES; 1% Penicillin/Streptomycin. 25,000 cells per well were seeded into a white 96 well plate in 100 μl growth medium and incubated over night at 37° C. and 5% CO2. After removing the supernatant the test compounds and controls were added in different concentrations in a final volume of 45 μl and incubated for 1 h at 37° C. and 5% CO2. For the stimulation of the Hedgehog pathway 5 μl of 10 μg/ml concentrated murine SHH (or mSHH; murine sonic hedgehog protein) was added to the cells. A final concentration of 1 μg/ml mSHH and 0.1% DMSO was reached per well. After incubation for 24 h at 37° C. the cells were investigated for viability and reporter activity. Viability: For the determination of the viability of the treated cells the CellTiter-FluorTM Kit from Promega comprising the fluorogenic, cell-permeant peptide substrate ([…]-aminofluorocoumarin GF-AFC was used. Roughly, only proteases of viable cells are able to cleave the GF-AFC. By this cleavage the fluorescent AFC is set free and can be detected in a fluorescence reader. For this assay 10 μl of GF-AFC substrate (CellTiter-FluorTM, Promega #G6082) was diluted in 2 ml assay buffer from the CellTiter-FluorTM Kit and 10 μl of this dilution was added per well to the cells and incubated for 30 min at 37° C. The fluorescence was measured with an excitation of 380-400 nm and an emission of 505 nm. Reporter activity: The firefly luciferase reporter activity was detected with the ONE-GloTM Luciferase Assay System from Promega. For this assay 50 μl ONE-Glo luciferase reagent (Promega #E6120, contains cell lysis buffer and luciferin) was added to each well and incubated at room temperature for 5 min. Luminescence was detected in a plate reader and served as a measure for reporter activity.

DYRK1B = DYRK1B (Homo sapiens (Human), UniProt Q9Y463); test: DYRK1B Kinase Assay (33P ATP, DYRKtide substrate, Reaction Biology Corp.); assay type: biochemical; conditions: 0.3 nM DYRK1B, 20 μM DYRKtide, 10 μM ATP, 25° C., 120 min
Sequence of DYRK1B (Q9Y463 whole entry): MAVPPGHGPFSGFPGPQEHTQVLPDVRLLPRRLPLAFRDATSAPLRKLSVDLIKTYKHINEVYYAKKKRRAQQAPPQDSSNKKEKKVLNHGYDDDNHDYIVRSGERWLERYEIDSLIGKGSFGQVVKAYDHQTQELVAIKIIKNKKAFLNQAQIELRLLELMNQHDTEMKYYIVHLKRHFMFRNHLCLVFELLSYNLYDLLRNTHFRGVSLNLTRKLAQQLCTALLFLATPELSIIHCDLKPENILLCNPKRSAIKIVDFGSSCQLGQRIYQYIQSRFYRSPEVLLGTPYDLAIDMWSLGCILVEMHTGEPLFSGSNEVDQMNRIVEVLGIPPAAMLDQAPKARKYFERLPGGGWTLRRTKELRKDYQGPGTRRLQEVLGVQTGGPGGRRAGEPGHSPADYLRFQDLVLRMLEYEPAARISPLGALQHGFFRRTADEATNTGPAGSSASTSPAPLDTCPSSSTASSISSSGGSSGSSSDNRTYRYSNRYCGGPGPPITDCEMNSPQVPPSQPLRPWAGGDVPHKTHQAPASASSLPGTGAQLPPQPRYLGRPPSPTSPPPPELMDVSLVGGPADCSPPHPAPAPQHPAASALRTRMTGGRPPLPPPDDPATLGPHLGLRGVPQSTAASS
Method: The assay was carried out by Reaction Biology Corp., […], Pa., USA according to specifications by Reaction Biology Corp., as detailed herein below and further described in Anastassiadis et al., Nature Biotechnology, 29 (2011) 1039-1045. The substrate DYRKtide (synthetic peptide RRRFRPASPLRGPPK) was dissolved in freshly prepared Base Reaction Buffer (20 mM Hepes (pH 7.5), 10 mM MgCl2, 1 mM EGTA, 0.02% Brij35, 0.02 mg/ml BSA, 0.1 mM Na3VO4, 2 mM DTT, 1% DMSO) at a concentration of 20 μM. DYRK1B was added to the substrate solution in a concentration of 0.3 nM and gently mixed. Dilution series of the compounds according to the present invention in DMSO were prepared. Each dilution was added to a batch of the above reaction mix, followed 20 min later by addition of a mixture of ATP and ^33P ATP (specific activity 0.01 μCi/μl final) to a final concentration of 10 μM. Reactions were carried out at 25° C. for 120 min, followed by spotting the reactions onto P81 ion exchange filter paper. Unbound phosphate was removed by extensive washing of the filters in 0.75% phosphoric acid. […] IC50 values and curve fits were obtained using Prism (Graph Pad Software). DYRK1B used in the above assays are further described in the below table: [table] Exemplary compound dilution series, final concentrations of compound in the assay vessel; the individual concentrations and the range of concentrations covered by the dilution series may differ for each compound, as long as enough data points are obtained to determine the compound's IC50: DYRK 1[…].

IC50 (DYRK1B) | Structure (SMILES) | IC50 [1]
2.81 nM | O=C(Nc1nc(-c2cccnc2)n[nH]1)c1csc(-c2ccc3c(c2)CCO3)n1 [Compound 45, 2-(2,3-Dihydrobenzofuran-5-yl)-N-(3-(pyridin-3-yl)-1H-1,2,4-triazol-5-yl)thiazole-4-carboxamide] | 1000 to 3000 nM
3.72 nM | O=C(Nc1nc2cc(C(=O)N3CCOCC3)ccc2[nH]1)c1csc(-c2ccc3c(c2)CCO3)n1 [Compound 10, 2-(2,3-Dihydrobenzofuran-5-yl)-N-(5-(morpholine-4-carbonyl)-1H-benzo[d]imidazol-2-yl)thiazole-4-carboxamide] | < 1000 nM
9.68 nM | CNC(=O)c1n[nH]c(NC(=O)c2csc(-c3ccc4c(c3)CCO4)n2)n1 [Compound 19, 2-(2,3-Dihydrobenzofuran-5-yl)-N-(3-(methylcarbamoyl)-1H-1,2,4-triazol-5-yl)thiazole-4-carboxamide] | 1000 to 3000 nM
47.1 nM | O=C(Nc1nnc(C(=O)N2CCCC2)[nH]1)c1csc(-c2ccc3c(c2)CCO3)n1 [Compound 28, 2-(2,3-Dihydrobenzofuran-5-yl)-N-(5-(pyrrolidine-1-carbonyl)-4H-1,2,4-triazol-3-yl)thiazole-4-carboxamide] | 3000 to 10000 nM
29.4 nM | O=C(Nc1nc2cc(OC(F)(F)F)ccc2[nH]1)c1csc(-c2ccc3c(c2)CCO3)n1 [Compound 14, 2-(2,3-Dihydrobenzofuran-5-yl)-N-(6-(trifluoromethoxy)-1H-benzo[d]imidazol-2-yl)thiazole-4-carboxamide] | 1000 to 3000 nM
0.852 nM | O=C(Nc1nc2cc(C(=O)N3CCCC3)ccc2[nH]1)c1csc(-c2ccc3c(c2)CCO3)n1 [Compound 22, 2-(2,3-Dihydrobenzofuran-5-yl)-N-(5-(pyrrolidine-1-carbonyl)-1H-benzo[d]imidazol-2-yl)thiazole-4-carboxamide] | < 1000 nM
48.2 nM | O=C(Nc1nc2cc(Cl)c(F)cc2[nH]1)c1csc(-c2ccc3c(c2)CCO3)n1 [Compound 2, N-(5-Chloro-6-fluoro-1H-benzo[d]imidazol-2-yl)-2-(2,3-dihydrobenzofuran-5-yl)thiazole-4-carboxamide] | 1000 to 3000 nM
66.8 nM | O=C(Nc1ncc[nH]1)c1csc(-c2ccc3c(c2)CCO3)n1 [Compound 11, 2-(2,3-Dihydrobenzofuran-5-yl)-N-(1H-imidazol-2-yl)thiazole-4-carboxamide] | 1000 to 3000 nM
85 nM | O=C(Nc1nnc(C(=O)N2CCOCC2)[nH]1)c1csc(-c2ccc3c(c2)CCO3)n1 [Compound 26, 2-(2,3-Dihydrobenzofuran-5-yl)-N-(5-(morpholine-4-carbonyl)-4H-1,2,4-triazol-3-yl)thiazole-4-carboxamide] | 3000 to 10000 nM
< 0.5 nM | O=C(NCC1CCCO1)c1ccc2[nH]c(NC(=O)c3csc(-c4ccc5c(c4)CCO5)n3)nc2c1 (centres unmarked) [Compound 35, 2-(2,3-Dihydrobenzofuran-5-yl)-N-(5-(((tetrahydrofuran-2-yl)methyl)carbamoyl)-1H-benzo[d]imidazol-2-yl)thiazole-4-carboxamide] | < 1000 nM
48.3 nM | COc1nc(NC(=O)c2csc(-c3ccc4c(c3)CCO4)n2)ns1 [Compound 64, 2-(2,3-Dihydro-1-benzofuran-5-yl)-N-(5-methoxy-1,2,4-thiadiazol-3-yl)-1,3-thiazole-4-carboxamide] | –
766 nM | O=C(Nc1ncco1)c1csc(-c2ccc3c(c2)CCO3)n1 [Compound 79, 2-(2,3-Dihydro-1-benzofuran-5-yl)-N-(1,3-oxazol-2-yl)-1,3-thiazole-4-carboxamide] | –
38.3 nM | O=C(c1ccccc1)c1ccc2[nH]c(NC(=O)c3csc(-c4ccc5c(c4)CCO5)n3)nc2c1 [Compound 60, N-(5-Benzoyl-1H-1,3-benzodiazol-2-yl)-2-(2,3-dihydro-1-benzofuran-5-yl)-1,3-thiazole-4-carboxamide] | –
65.9 nM | O=C(Nc1nnc(Br)s1)c1csc(-c2ccc3c(c2)CCO3)n1 [Compound 67, N-(5-Bromo-1,3,4-thiadiazol-2-yl)-2-(2,3-dihydro-1-benzofuran-5-yl)-1,3-thiazole-4-carboxamide] | –
19.5 nM | N#Cc1ccnc(NC(=O)c2csc(-c3ccc4c(c3)CCO4)n2)c1 [Compound 18, N-(4-Cyanopyridin-2-yl)-2-(2,3-dihydrobenzofuran-5-yl)thiazole-4-carboxamide] | –
48.7 nM | O=C(Nc1nccs1)c1csc(-c2ccc3c(c2)CCO3)n1 [Compound 65, 2-(2,3-Dihydro-1-benzofuran-5-yl)-N-(1,3-thiazol-2-yl)-1,3-thiazole-4-carboxamide] | –
6.73 nM | O=C(Nc1nc2ccccc2[nH]1)c1csc(-c2ccc3c(c2)CCO3)n1 [Compound 50, N-(1H-1,3-Benzodiazol-2-yl)-2-(2,3-dihydro-1-benzofuran-5-yl)-1,3-thiazole-4-carboxamide] | –
135 nM | O=C(Nc1nc2ccccc2s1)c1csc(-c2ccc3c(c2)CCO3)n1 [Compound 75, N-(1,3-Benzothiazol-2-yl)-2-(2,3-dihydro-1-benzofuran-5-yl)-1,3-thiazole-4-carboxamide] | –
410 nM | CCOC(=O)c1csc(NC(=O)c2csc(-c3ccc4c(c3)CCO4)n2)n1 [Compound 78, Ethyl 2-[2-(2,3-dihydro-1-benzofuran-5-yl)-1,3-thiazole-4-amido]-1,3-thiazole-4-carboxylate] | –
21.7 nM | O=C(Nc1nnc(N2CCOCC2)s1)c1csc(-c2ccc3c(c2)CCO3)n1 [Compound 56, 2-(2,3-Dihydro-1-benzofuran-5-yl)-N-[5-(morpholin-4-yl)-1,3,4-thiadiazol-2-yl]-1,3-thiazole-4-carboxamide] | –
47.1 nM | O=C(Nc1nc[nH]n1)c1csc(-c2ccc3c(c2)CCO3)n1 [Compound 63, 2-(2,3-Dihydro-1-benzofuran-5-yl)-N-(1H-1,2,4-triazol-3-yl)-1,3-thiazole-4-carboxamide] | –
11.9 nM | C=CCSc1n[nH]c(NC(=O)c2csc(-c3ccc4c(c3)CCO4)n2)n1 [Compound 39, N-(3-(Allylthio)-1H-1,2,4-triazol-5-yl)-2-(2,3-dihydrobenzofuran-5-yl)thiazole-4-carboxamide] | –
27.6 nM | Cc1cnc(NC(=O)c2csc(-c3ccc4c(c3)CCO4)n2)s1 [Compound 58, 2-(2,3-Dihydro-1-benzofuran-5-yl)-N-(5-methyl-1,3-thiazol-2-yl)-1,3-thiazole-4-carboxamide] | –
9.17 nM | O=C(Nc1nc2ccc(C(=O)N3CCOCC3)cc2s1)c1csc(-c2ccc3c(c2)CCO3)n1 [Compound 51, 2-(2,3-Dihydro-1-benzofuran-5-yl)-N-[6-(morpholine-4-carbonyl)-1,3-benzothiazol-2-yl]-1,3-thiazole-4-carboxamide] | –
68.1 nM | O=C(Nc1nnc(C(=O)O)[nH]1)c1csc(-c2ccc3c(c2)CCO3)n1 [Compound 31, 5-(2-(2,3-Dihydrobenzofuran-5-yl)thiazole-4-carboxamido)-4H-1,2,4-triazole-3-carboxylic acid] | –
